Experimental data reported in PMC5958115, “A novel small molecule chaperone of rod opsin and its potential therapy for retinal degeneration” (Nature Communications, 2018).

Legend:
bovine opsin = molecular target: T1, bovine opsin (Bos taurus, UniProt P02699); assay: Isorhodopsin pigment regeneration in ROS disc membranes (absorbance at 487 nm); format: biochemical; settings: for competition with 9-cis-retinal in the chromophore-binding pocket: added simultaneously or sequentially with 9-cis-retinal
T1 construct: ROS membranes were isolated from bovine retinas under dim red light; from tissue; host or cells: bovine retina, rod outer segment (ROS) disc membranes, bleached with hydroxylamine
T1 sequence (P02699 whole entry): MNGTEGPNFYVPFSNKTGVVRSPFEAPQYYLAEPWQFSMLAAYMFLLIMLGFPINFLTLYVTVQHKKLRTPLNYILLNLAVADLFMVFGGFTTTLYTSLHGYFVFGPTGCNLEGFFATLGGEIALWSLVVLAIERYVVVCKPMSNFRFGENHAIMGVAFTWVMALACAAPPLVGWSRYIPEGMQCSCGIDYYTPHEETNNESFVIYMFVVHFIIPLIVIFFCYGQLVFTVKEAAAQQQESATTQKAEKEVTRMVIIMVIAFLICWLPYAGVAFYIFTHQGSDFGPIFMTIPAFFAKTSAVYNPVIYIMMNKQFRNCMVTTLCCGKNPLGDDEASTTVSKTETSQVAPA
Description: ROS membranes containing opsin were suspended in buffer composed of 20 mM BTP, pH 7.5, and 100 mM NaCl at a final concentration of 2.5 µM. […] Membranes then were solubilized with 20 mM DDM for 10 min at RT and UV–visible spectra of these samples were measured. To follow the kinetics of isorhodopsin regeneration, opsin membranes were treated with 0, 20, or 60 µM YC-001 for 15 min at RT. […] UV–visible spectra of the samples were measured every 2 min until 2 h of reaction time at RT. Each condition was repeated three times. The time course of isorhodopsin regeneration was fitted by a second-order exponential decay and apparent half-lives were obtained at the time when reaction reached half of the end-point product.
Alternatively, opsin incubated with the above ligands was purified by 1D4-immunoaffinity chromatography. […] After washing, opsin samples were eluted by addition of 1D4 peptide ([…]) to the above buffer and their spectra were measured with a UV–visible spectrophotometer.
To test whether YC-001 stabilizes rod opsin, opsin samples (2.5 µM) were incubated with or without 10 µM YC-001 for 15 min, followed by solubilization in 20 mM DDM. […] UV–visible spectra of these samples then were measured.

NIH3T3 cells = assay: Cell number in high-content imaging of NIH3T3 cells; format: cell-based, mouse
Description: To characterize the effect of active compounds on the localization of P23H-mutant opsin in mammalian cells, an image-based assay was used with cells immunostained for WT or P23H-mutant opsin protein[18]. Briefly, NIH3T3-(P23H opsin/GFP) or NIH3T3-(WT-opsin/GFP) cells were seeded at 5000 cells per well in a 384-well cell-carrier plate (PerkinElmer) and incubated at 37 °C with 5% CO2 for 2 h. Cells were treated with compounds as described for the β-Gal fragment complementation assay and incubated in assay medium for 24 h. The assay medium then was aspirated, and cells were fixed with 4% paraformaldehyde at 20 µL per well for 20 min at RT. […] Fluorescence images were obtained with the Operetta High Content Imaging System (PerkinElmer) using a ×20 long objective. Five fields were taken of each well for cell images using three channels for fluorescence: GFP (100 ms), Cy3 (300 ms), and DAPI (50 ms). Images were analyzed with Acapella software from the Columbus data storage and analysis system (PerkinElmer)[18]. For cells immunostained with opsin on the non-permeabilized cell membrane only, an average of total fluorescence intensity of Cy3 per cell was used to quantify opsin in each well of the 384-well plate. […]

bovine rod opsin = molecular target: T2, bovine rod opsin (Bos taurus, UniProt P02699); assay: Gt activation assay (GTPγS-induced fluorescence change); format: biochemical
T2 construct: Constitutive activity of bovine opsin in disc membranes; from tissue; host or cells: bovine retina ROS membranes (opsin membranes and purified Gt)
T2 sequence (P02699 whole entry): as above
Description: Gt was extracted and purified from frozen bovine ROS membranes as described in Preparation of Opsin Membranes. The intrinsic increase in the fluorescence from Gtα was measured with a L55 luminescence spectrophotometer (PerkinElmer Life Sciences) using an excitation and emission wavelengths of 300 and 345 nm, respectively[39],[40]. […] DMSO-treated opsin membranes were used to obtain a baseline for the basal activity of opsin. The molar ratio of opsin to Gt was 1:10, with opsin at a concentration of 100 nM and Gt at 1000 nM. […] This step was followed by the addition of 300 μM GTPγS (Sigma-Aldrich) to determine the GTPγS-induced complex dissociation and corresponding fluorescence changes. Gt activation rates were determined and plotted for the first 100 s of the Gt activation assay[40],[67].

P23H opsin = settings: cited from earlier work

| Compound | competition with 9-cis-retinal in the chromophore-binding pocket (bovine opsin) | effect on cell number (NIH3T3 cells; up to 40 µM) | initial rate of Gt activation, ln(kinitial) (bovine rod opsin; 40 µM compound, constitutive activity of opsin, DMSO control −5.3) | initial rate of Gt activation, ln(kinitial) (bovine rod opsin; co-treated with 40 µM 9-cis-retinal and 40 µM YC-001, upon illumination) | half-life of rod opsin aging at RT (bovine opsin; 10 µM YC-001 vs opsin alone, 0-6 h) | total amount of regenerated isorhodopsin pigment at the end of the reaction (bovine opsin; increasing YC-001, sequential 9-cis-retinal) | reversibility of interaction with opsin (bovine opsin; opsin/isorhodopsin purification after treatment) | IC50 (bovine opsin; read-out: IC50, regenerated isorhodopsin) | effect of co-treatment with scriptaid (P23H opsin) | concentration that euthanized most cells (NIH3T3 cells; 24 h treatment) | initial rate of Gt activation, ln(kinitial) (bovine rod opsin; isorhodopsin regenerated by 40 µM 9-cis-retinal alone, upon illumination) |
| --- | --- | --- | --- | --- | --- | --- | --- | --- | --- | --- | --- |
| O=C(CCCCCN1C(=O)c2cccc3cccc(c23)C1=O)NO [Scriptaid, reference compound] | does not compete with 9-cis-retinal |  |  |  |  |  |  |  |  |  |  |
| O=C1OCC(c2ccc(Cl)s2)=C1c1cccs1 [YC-001] | competing with 9-cis-retinal in a short timeframe | did not affect cell number | −6.1 | −4.9 | significantly longer half-life | did not affect | reversible | 11.4 µM | synergistic effect |  |  |
| CC1=C(/C=C/C(C)=C\C=C\C(C)=C\C=O)C(C)(C)CCC1 [9-cis-retinal, reference compound] |  |  |  |  |  |  |  |  |  | higher than 10 µM | −4.6 |
